Data published in US20240167922A1, “TRANSPARENTIZING REAGENT AND TRANSPARENTIZING METHOD” (KYOTO UNIVERSITY, priority 2021, published 2024).

Tests used:
[1] = water at 20° C.; cited from earlier work
[2] = Measurement of opacity of noodle samples after optical clearing; settings: Example 6: 3M to 4M aqueous solutions, 30° C. for 3 days after fixation
Procedure: ClearSee was prepared by mixing xylitol powder [Nacalai tesque, 36718-65; final concentration 10% (wt/vol)], sodium deoxycholate [Nacalai tesque, 10712-96; final concentration 15% (wt/vol)], and urea [Nacalai tesque, 35905-35; final concentration 25% (wt/vol)] in Milli-Q water.
The opacity of the samples was determined using a cooled CCD camera system (GE Healthcare, ImageQuant LAS 4000). […] Then, the sample was digitised by the CCD camera which was cooled to −25° C. with a lens (F0.85 43 mm) using white transillumination. […] The opacity of the sample was calculated by normalising the gray value of the sample with that of the background using free software (Fiji). The contrast C, which represents the difference in gray level, was calculated according to the following equation (1) from an image of the samples laid with a film on which a grid pattern was printed. The plot profile was measured using Fiji software.
ClearSee is a reagent that is able to make plant samples transparent as described in Non-patent Literature 1, and aims to remove autofluorescence of chlorophyll from green leaves. To evaluate the transparency of the noodle samples, the opacity of the transmitted light image was quantified.
The noodle samples were fixed and then immersed in each clearing reagent at 30° C. for 3 days, and the opacity was measured. As controls, the opacity of the noodle sample just after fixation and the noodle sample immersed in D-PBS instead of the clearing reagent was measured. […] Values in the figure represent mean±SD of three independent experiments.

[3] = Test for decolorizing agent (opacity); settings: pasta immersed in the agent 5 days, then SoROCS 3 days; mean±SD of three experiments; water control 1.079±0.002
Procedure: Pasta samples made from durum wheat were fixed in 4% (wt/wt) PFA/PBS at 30° C. for 1.5 hours, and washed twice in D-PBS. […] Values represent mean ±SD of three independent experiments.

[4] = Test for defatting agent (opacity); settings: fried noodles immersed in the agent 5 days, then SoROCS 3 days; mean±SD of three experiments; water control 1.120±0.006
Procedure: Wheat noodle samples fried in vegetable oil were fixed in 4% (wt/wt) PFA/PBS at 30° C. for 1.5 hours and washed twice in D-PBS. […] Values represent mean ±SD of three independent experiments.

Compound	optical clearing of noodle samples [2]	further results
O=C([O-])c1ccccc1O.[Na+] [sodium salicylate]	–	solubility in water [1]: about 4.125 M
O=C([O-])c1cccc(O)c1.[Na+] [sodium 3-hydroxybenzoate]	cleared	–
Oc1cccc(O)c1 [resorcinol]	cleared	–
O=C([O-])c1ccccc1O.[Li+] [lithium salicylate]	cleared	–
Oc1ccccc1O [catechol]	cleared	–
CCCCC(O)CO (stereo not shown) [1,2-hexanediol]	–	opacity [3]: 1.041±0.002
O=C([O-])c1ccc(O)cc1.[Na+] [sodium 4-hydroxybenzoate]	cleared	–
C=C(C)[C@H]1CC=C(C)CC1 [limonene]	–	opacity [4]: 1.089±0.004
Oc1cccc(O)c1O [pyrogallol]	cleared	–
O=C([O-])c1ccccc1C(=O)[O-].[Na+].[Na+] [disodium phthalate]	cleared	–
